Target: GST tagged truncated human mutant G2019S LRRK2 (Homo sapiens (Human), UniProt Q5S007, G2019S)
Assay: LRRK2 Km ATP LanthaScreen Assay
Format: biochemical
Conditions: G2019S LRRK2, 134 μM ATP (Km ATP), mean values; for IC50: read-out: LRRK2 pIC50 (converted)
In short: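 Enzyme (GST-tagged, truncated) was preincubated with compound for 15 min at RT in 50 mM Tris pH 8.5, 10 mM MgCl2, 0.01% Brij-35, 1 mM EGTA, 2 mM DTT and 0.05 mM orthovanadate. Fluorescein-LRRKtide and 134 μM ATP (Km) were then added for 90 min. EDTA and Tb-anti-pERM antibody stopped the reaction; the TR-FRET 520/495 ratio gave 4-parameter IC50s, reported as mean pIC50.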

Sequence of GST tagged truncated human mutant G2019S LRRK2 (Q5S007 970-2527 G2019S): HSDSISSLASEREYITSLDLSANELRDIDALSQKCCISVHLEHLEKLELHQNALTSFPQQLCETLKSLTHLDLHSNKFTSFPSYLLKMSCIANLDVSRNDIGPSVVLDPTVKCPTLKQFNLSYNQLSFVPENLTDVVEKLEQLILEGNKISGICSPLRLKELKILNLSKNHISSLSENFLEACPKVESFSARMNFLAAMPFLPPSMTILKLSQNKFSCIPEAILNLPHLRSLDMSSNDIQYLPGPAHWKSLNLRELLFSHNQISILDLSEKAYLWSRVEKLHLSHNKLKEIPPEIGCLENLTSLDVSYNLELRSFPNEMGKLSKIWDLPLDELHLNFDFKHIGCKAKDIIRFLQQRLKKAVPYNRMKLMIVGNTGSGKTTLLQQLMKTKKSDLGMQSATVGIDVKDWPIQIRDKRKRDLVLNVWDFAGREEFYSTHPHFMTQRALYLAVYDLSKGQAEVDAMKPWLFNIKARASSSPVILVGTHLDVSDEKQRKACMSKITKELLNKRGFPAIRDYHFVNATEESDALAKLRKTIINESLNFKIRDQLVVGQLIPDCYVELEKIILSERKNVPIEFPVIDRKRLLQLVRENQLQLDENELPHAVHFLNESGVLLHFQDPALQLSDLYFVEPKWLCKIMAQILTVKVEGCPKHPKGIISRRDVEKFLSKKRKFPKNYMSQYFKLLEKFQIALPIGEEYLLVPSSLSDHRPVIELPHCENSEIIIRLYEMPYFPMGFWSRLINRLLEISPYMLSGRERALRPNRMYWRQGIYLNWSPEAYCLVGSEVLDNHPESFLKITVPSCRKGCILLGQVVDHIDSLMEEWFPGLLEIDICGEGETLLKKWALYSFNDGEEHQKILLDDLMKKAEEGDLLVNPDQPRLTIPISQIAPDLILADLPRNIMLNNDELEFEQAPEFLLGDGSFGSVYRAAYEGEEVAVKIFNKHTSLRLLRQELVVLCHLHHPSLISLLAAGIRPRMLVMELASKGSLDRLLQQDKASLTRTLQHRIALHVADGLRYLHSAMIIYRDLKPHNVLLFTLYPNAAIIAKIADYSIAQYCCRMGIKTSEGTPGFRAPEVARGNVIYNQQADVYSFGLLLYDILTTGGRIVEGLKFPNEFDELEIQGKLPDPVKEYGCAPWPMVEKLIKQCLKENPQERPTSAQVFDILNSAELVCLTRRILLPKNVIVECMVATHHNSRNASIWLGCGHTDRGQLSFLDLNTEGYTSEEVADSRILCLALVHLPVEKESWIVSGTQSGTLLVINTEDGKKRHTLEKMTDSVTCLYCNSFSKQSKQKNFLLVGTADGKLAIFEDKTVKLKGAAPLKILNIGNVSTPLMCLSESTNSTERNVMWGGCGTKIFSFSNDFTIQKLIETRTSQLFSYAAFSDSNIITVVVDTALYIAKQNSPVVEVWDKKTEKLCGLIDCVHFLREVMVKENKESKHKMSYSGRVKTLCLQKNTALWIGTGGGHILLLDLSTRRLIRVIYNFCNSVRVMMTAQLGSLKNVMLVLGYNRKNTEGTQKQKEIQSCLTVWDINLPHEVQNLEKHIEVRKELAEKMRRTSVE

SMILES | LRRK2 pIC50 | IC50 [nM]
Cc1nsc(Nc2ncc3cc(Cl)c([C@@H]4CCN(C5CCOC5)C[C@H]4F)cc3n2)c1Cl (single isomer, unassigned) [Ex-8.21, (3S,4S)(S) or (3S,4S)(R) or (3R,4R)(S) or (3R,4R)(R) 6-chloro-N-(4-chloro-3-methyl-1,2-thiazol-5-yl)-7-[3-fluoro-1-(oxolan-3-yl)piperidin-4-yl]quinazolin-2-amine] | 8.44 | 
Cc1c(Nc2ncc3cc(Cl)c(C4CCN(C5COC5C)CC4)cc3n2)cnn1C(C)(C)C#N (single isomer, unassigned) [Ex-4.133, (2R,3R) or (2S,3S) or (2S,3R) or (2R,3S) 2-[4-({6-chloro-7-[1-(2-methyloxetan-3-yl)piperidin-4-yl]quinazolin-2-yl}amino)-5-methyl-1H-pyrazol-1-yl]-2-methylpropanenitrile] | 8.92 | 
Cc1cc(Nc2ncc3cc(Cl)c(C4CCN(C5CS(=O)(=O)C5)CC4)cc3n2)sn1 [Ex-4.96, 3-(4-(6-chloro-2-((3-methylisothiazol-5-yl)amino)quinazolin-7-yl)piperidin-1-yl)thietane 1,1-dioxide] | 9.09 | 
CN1CCC(c2cc3nc(Nc4cnn(CC(C)(C)O)c4Cl)ncc3cc2Cl)CC1 [Ex-4.72, 1-(5-chloro-4-{[6-chloro-7-(1-methylpiperidin-4-yl)quinazolin-2-yl]amino}-1H-pyrazol-1-yl)-2-methylpropan-2-ol] | 8.92 | 
Cc1nsc(Nc2ncc3cc(Cl)c([C@@H]4CCN(C5CCOC5)C[C@H]4F)cc3n2)c1Cl (single isomer, unassigned) [Ex-8.20, (3S,4S)(S) or (3S,4S)(R) or (3R,4R)(S) or (3R,4R)(R) 6-chloro-N-(4-chloro-3-methyl-1,2-thiazol-5-yl)-7-[3-fluoro-1-(oxolan-3-yl)piperidin-4-yl]quinazolin-2-amine] | 8.53 | 
O[C@@H]1COC[C@@H]1N1CC[C@@H](c2cc3nc(Nc4cnn(C56CC(C5)C6)c4)ncc3cc2Cl)[C@H](F)C1 (single isomer, unassigned) [Ex-4.153, (3S,4S)(3S,4S) or (3S,4S)(3R,4R) or (3R,4R)(3S,4S) or (3R,4R)(3R,4R) 4-[4-(2-{[1-(bicyclo[1.1.1]pentan-1-yl)-1H-pyrazol-4-yl]amino}-6-chloroquinazolin-7-yl)-3-fluoropiperidin-1-yl]oxolan-3-ol] | >9.20 | 
CC(C)(O)CN1CCC(c2cc3nc(Nc4cnn(C5CC5)c4)ncc3cc2Cl)C1 (single isomer, unassigned) [Ex-1.10, (S) or (R) 1-(3-{6-chloro-2-[(1-cyclopropyl-1H-pyrazol-4-yl)amino]quinazolin-7-yl}pyrrolidin-1-yl)-2-methylpropan-2-ol] |  | 28.2
Cc1c(Nc2ncc3cc(Cl)c(C4CCN(C5COC5)CC4)cc3n2)cnn1CC1(C#N)CC1 [Ex-2.15, 1-{[4-({6-chloro-7-[1-(oxetan-3-yl)piperidin-4-yl]quinazolin-2-yl}amino)-5-methyl-1H-pyrazol-1-yl]methyl}cyclopropane-1-carbonitrile] | >9.20 | 
COC(C)(C)C12CC(n3cc(Nc4ncc5cc(Cl)c(C6CCN(C7(C)COC7)CC6)cc5n4)cn3)(C1)C2 [Ex-2.56, 6-chloro-N-{1-[3-(2-methoxypropan-2-yl)bicyclo[1.1.1]pentan-1-yl]-1H-pyrazol-4-yl}-7-[1-(3-methyloxetan-3-yl)piperidin-4-yl]quinazolin-2-amine] | 8.75 | 
O[C@H]1COC[C@H]1N1CC[C@@H](c2cc3nc(Nc4cnn(C56CC(C5)C6)c4)ncc3cc2Cl)[C@H](F)C1 (single isomer, unassigned) [Ex-4.154, (3S,4S)(3S,4S) or (3S,4S)(3R,4R) or (3R,4R)(3S,4S) or (3R,4R)(3R,4R) 4-[4-(2-{[1-(bicyclo[1.1.1]pentan-1-yl)-1H-pyrazol-4-yl]amino}-6-chloroquinazolin-7-yl)-3-fluoropiperidin-1-yl]oxolan-3-ol] | 9.06 | 
CC1CC(c2cc3nc(Nc4cnn(C5CC5)c4Cl)ncc3cc2Cl)CCN1C1COC1 (single isomer, unassigned) [Ex-4.106, (2S,4S) or (2R,4R) or (2S,4R) or (2R,4S) 6-chloro-N-(5-chloro-1-cyclopropyl-1H-pyrazol-4-yl)-7-(2-methyl-1-(oxetan-3-yl)piperidin-4-yl)quinazolin-2-amine] | >9.20 | 
Cn1ncc(Nc2ncc3cc(Cl)c([C@@H]4CCN([C@]5(C)COC[C@@H]5O)C[C@H]4F)cc3n2)c1C(F)(F)F (single isomer, unassigned) [Ex-4.254, (3S,4S)(3S,4S) or (3S,4S)(3R,4R) or (3R,4R)(3S,4S) or (3R,4R)(3R,4R) 4-[4-(6-chloro-2-{[1-methyl-5-(trifluoromethyl)-1H-pyrazol-4-yl]amino}quinazolin-7-yl)-3-fluoropiperidin-1-yl]-4-methyloxolan-3-ol] | >9.20 | 
Cc1c(Nc2ncc3cc(Cl)c(C4CCN(CC(O)c5ccc(C#N)cc5)CC4)cc3n2)cnn1C1CC1 (single isomer, unassigned) [Ex-4.226, (S) or (R) 4-[2-(4-{6-chloro-2-[(1-cyclopropyl-5-methyl-1H-pyrazol-4-yl)amino]quinazolin-7-yl}piperidin-1-yl)-1-hydroxyethyl]benzonitrile] |  | 3.72
Cc1cc2cnc(Nc3cnn(C4CC4)c3C)nc2cc1C1CCN([C@]2(C)COC[C@@H]2O)CC1 (single isomer, unassigned) [Ex-2.39, (3S,4S) or (3R,4R) 4-(4-{2-[(1-cyclopropyl-5-methyl-1H-pyrazol-4-yl)amino]-6-methylquinazolin-7-yl}piperidin-1-yl)-4-methyloxolan-3-ol] | 8.09 | 
Cn1ncc(Nc2ncc3cc(Cl)c([C@@H]4CCN([C@@H]5COC[C@@H]5O)C[C@H]4F)cc3n2)c1C1CC1 (single isomer, unassigned) [Ex-4.239, (3S,4S)(3S,4S) or (3S,4S)(3R,4R) or (3R,4R)(3S,4S) or (3R,4R)(3R,4R) 4-(4-{6-chloro-2-[(5-cyclopropyl-1-methyl-1H-pyrazol-4-yl)amino]quinazolin-7-yl}-3-fluoropiperidin-1-yl)oxolan-3-ol] | >9.20 | 
F[C@@H]1CN(C2COC2)CC[C@H]1c1cc2nc(Nc3cnn(C4CC4(F)F)c3Cl)ncc2cc1Cl (single isomer, unassigned) [Ex-8.28, (R)(3S,4S) or (S)(3S,4S) or (R)(3R,4R) or (S)(3R,4R) 6-chloro-N-[5-chloro-1-(2,2-difluorocyclopropyl)-1H-pyrazol-4-yl]-7-[3-fluoro-1-(oxetan-3-yl)piperidin-4-yl]quinazolin-2-amine] | 9.04 | 
Cc1c(Nc2ncc3cc(Cl)c(C4CCN([C@@]5(C)COC[C@H]5O)CC4)cc3n2)cnn1C (single isomer, unassigned) [Ex-2.65, (3S,4S) or (3R,4R) 4-(4-{6-chloro-2-[(1,5-dimethyl-1H-pyrazol-4-yl)amino]quinazolin-7-yl}piperidin-1-yl)-4-methyloxolan-3-ol] | 7.84 | 
Cc1c(Nc2ncc3cc(Cl)c([C@@H]4CCN([C@@H]5COC[C@@H]5O)C[C@H]4F)cc3n2)cnn1C (single isomer, unassigned) [Ex-4.255, (3S,4S)(3S,4S) or (3S,4S)(3R,4R) or (3R,4R)(3S,4S) or (3R,4R)(3R,4R) 4-(4-(6-chloro-2-((1,5-dimethyl-1H-pyrazol-4-yl)amino)quinazolin-7-yl)-3-fluoropiperidin-1-yl)tetrahydrofuran-3-ol] | >9.20 | 
Cc1cc2cnc(Nc3cnn(C4CC4(F)F)c3C)nc2cc1[C@@H]1CCN(C2COCC2F)C[C@H]1F (single isomer, unassigned) [Ex-7.6] | >9.20 | 
O[C@@H]1COC[C@@H]1N1CC[C@H](c2cc3nc(Nc4cnn(C56CC(C5)C6)c4Cl)ncc3cc2Cl)[C@@H](F)C1 (single isomer, unassigned) [Ex-8.32, (3S,4S)(3S,4S) or (3S,4S)(3R,4R) or (3R,4R)(3S,4S) or (3R,4R)(3R,4R) 4-[4-(2-{[1-(bicyclo[1.1.1]pentan-1-yl)-5-chloro-1H-pyrazol-4-yl]amino}-6-chloroquinazolin-7-yl)-3-fluoropiperidin-1-yl]oxolan-3-ol] | 9.05 | 
Cc1cc2cnc(Nc3cnn(C45CC(C4)C5)c3Cl)nc2cc1[C@@H]1CCN([C@H]2COC[C@H]2O)C[C@H]1F (single isomer, unassigned) [Ex-8.34, (3S,4S)(3S,4S) or (3S,4S)(3R,4R) or (3R,4R)(3S,4S) or (3R,4R)(3R,4R) 4-[4-(2-{[1-(bicyclo[1.1.1]pentan-1-yl)-5-chloro-1H-pyrazol-4-yl]amino}-6-methylquinazolin-7-yl)-3-fluoropiperidin-1-yl]oxolan-3-ol] | >9.20 | 
N#Cc1cc2cnc(Nc3cnn(C4CC4(F)F)c3Cl)nc2cc1[C@@H]1CCN(C2COC2)C[C@H]1F (single isomer, unassigned) [Ex-6.5, (R)(3S,4S) or (S)(3S,4S) or (R)(3R,4R) or (S)(3R,4R) 2-((5-chloro-1-(2,2-difluorocyclopropyl)-1H-pyrazol-4-yl)amino)-7-(3-fluoro-1-(oxetan-3-yl)piperidin-4-yl)quinazoline-6-carbonitrile] | >9.20 | 
Cc1c(Nc2ncc3cc(Cl)c(C4CCN(CC(O)c5ccc(C#N)cc5)CC4)cc3n2)cnn1C1CC1 (single isomer, unassigned) [Ex-4.220, (S) or (R) 4-[2-(4-{6-chloro-2-[(1-cyclopropyl-5-methyl-1H-pyrazol-4-yl)amino]quinazolin-7-yl}piperidin-1-yl)-1-hydroxyethyl]benzonitrile] |  | 6.17
Clc1cc2cnc(Nc3cnn(CC4CC4)c3Cl)nc2cc1C1CCNCC1 [Ex-4.90, 6-chloro-N-[5-chloro-1-(cyclopropylmethyl)-1H-pyrazol-4-yl]-7-(piperidin-4-yl)quinazolin-2-amine] | >9.20 | 

From patent publication US12540131B2 (Merck Sharp & Dohme LLC, priority 2019, dated 2026)
